Experimental findings from EP0119737A2, “Pharmaceutical composition and its production” (Takeda Chemical Industries, Ltd., priority 1983, dated 1984) are described below.

In brackets after ≈: the same amount, converted by molar mass.

For test [1], the system named is Aspergillus niger ATCC 9642. Description: Minimal inhibitory concentration (MIC) of preservative solutions, serial dilution in culture medium, read with the naked eye. It counts as cell-based. The settings on record: ATCC9642, 120 h, A. niger ATCC 9642, 10^5 cfu/ml, 25°C, 5 days. Here is the method: (§1) Thus, two culture media are prepared by adding 0% and 5% of a-cyclodextrin, respectively, to a 1/15 M phosphate buffer (pH 6.5) containing 2% of Polypeptone (Daigo Nutritive Chemicals Ltd., Japan). The preservative is added to each medium and the resulting solution is diluted serially with each of the respective media to give solutions differing in preservative concentration. The test organisms are added to these solutions to a final concentration of 10^5 cfu/ml (cfu: colony forming unit).

The subject of test [2] is Escherichia coli IFO 3044. Described as above. In kind it is cell-based. The settings on record: IFO3044, 72 h, E. coli IFO 3044, 10^5 cfu/ml, 35°C, 3 days. As for the experimental part:
as §1

Setting [3] is: pH 6.5, Culture medium + 5% α-cyclodextrin.
Setting [4] is: pH 6.5, Culture medium without addition of cyclodextrin.

In the case of `CCCCOC(=O)c1ccc(O)cc1` [Butylparaben], the MIC is 4000 µg/mL in test [1] (setting [3]), 125 µg/mL (≈ 644 µM) in test [1] (setting [4]), 4000 µg/mL in test [2] (setting [3]) and 125 µg/mL (≈ 644 µM) in test [2] (setting [4]).

On to `CCOC(=O)c1ccc(O)cc1` [Ethylparaben], for which the MIC in test [1] (setting [3]) was found to be 4000 µg/mL; in test [1] (setting [4]), 250 µg/mL (≈ 1500 µM); in test [2] (setting [3]), 4000 µg/mL; in test [2] (setting [4]), 500 µg/mL (≈ 3010 µM).

In the case of `COC(=O)c1ccc(O)cc1` [Methylparaben], the minimum inhibitory concentration (MIC) in test [1] (setting [3]) came out at 4000 µg/mL; in test [1] (setting [4]), 500 µg/mL (≈ 3290 µM); in test [2] (setting [3]), 4000 µg/mL; in test [2] (setting [4]), 500 µg/mL (≈ 3290 µM).

In the case of `CCCOC(=O)c1ccc(O)cc1` [Propylparaben], the minimal inhibitory concentration (MIC) in test [1] (setting [3]) stood at 4000 µg/mL; in test [1] (setting [4]) it was 125 µg/mL (≈ 694 µM); in test [2] (setting [3]), 4000 µg/mL; in test [2] (setting [4]), 250 µg/mL (≈ 1390 µM).

With `Cc1cc(O)ccc1Cl` [p-Chloro-m-cresol, p-chloro-m-cresol], the minimum inhibitory concentration (MIC) in test [1] (setting [3]) is 200 µg/mL; in test [1] (setting [4]) it was 100 µg/mL (≈ 701 µM); in test [2] (setting [3]), 200 µg/mL; in test [2] (setting [4]), 200 µg/mL (≈ 1400 µM).

In the case of `Cc1cc(O)cc(C)c1Cl` [p-Chloro-m-xylenol, p-chloro-m-xylenol], the MIC in test [1] (setting [3]) is 75 µg/mL; in test [1] (setting [4]), 50 µg/mL (≈ 319 µM); in test [2] (setting [3]), 150 µg/mL; in test [2] (setting [4]), 100 µg/mL (≈ 639 µM).

For the compound `Oc1ccc(Cl)cc1` [p-Chlorophenol, p-chlorophenol], the minimum inhibitory concentration (MIC) in test [1] (setting [3]) stood at 400 µg/mL; in test [1] (setting [4]) it was 200 µg/mL (≈ 1560 µM); in test [2] (setting [3]), 400 µg/mL; in test [2] (setting [4]) it was 200 µg/mL (≈ 1560 µM).
